Data as given in article PMC11279160 (Microorganisms, 2024).
Where two headings read alike, the source gives them in different places.

Assays:
[1] = tested on: L. (L.) amazonensis intracellular amastigotes; assay: Activity against intramacrophageal amastigotes in infected J774A.1 macrophages; format: cell-based, Leishmania (Leishmania) amazonensis; details: for EC50: read-out: Intracellular Amastigotes EC50; for reduction in macrophage infection rate / reduction in the number of internalized amastigotes per infected macrophage: compared to negative control
Experimental: Macrophages were added to 24-well culture plates containing complete RPMI medium and sterile 13 mm coverslips, 1 × 10^5 J774A.1, and for cell adhesion incubated at 37 °C and 5% CO2 for 3 h. The medium was then removed, and three washes with PBS at 37 °C to remove non-adherent cells were performed. New medium, together with metacyclic promastigote forms in a proportion of 10 promastigotes/macrophage, was then added to the wells for infection and then incubated for another 4 h at 37 °C and 5% of CO2. The medium was then removed again and the plate washed with PBS to remove non-internalized […]. […] Subsequently, the coverslips were removed, stained with a quick panoptic kit, and mounted with Entelan®. In each coverslip, 300 macrophages were counted, together with the number of internalized amastigotes through optical microscopy at 1000× magnification. For the negative control, complete RPMI medium with 0.5% DMSO was used. At the end of the macrophage infection assay, the supernatant was stored at −20 °C for the subsequent evaluation of NO production.

in vitro [2] = details: mouse
Experimental: (§3) Murine J774A.1 lineage macrophages and VERO CCL 81 cells were grown in 750 cm^2 cell culture flasks (Corning Glass Workers, New York, NY, USA) containing complete RPMI medium (10% SFB and 1% stabilized anti-mycotic–antibiotic solution), incubated at 37 °C and 5% CO2. The cells were observed on all days and replicates were always conducted after the cells reached confluence, around 72 to 96 h [22].
(§4) The cytotoxicity assay was performed in 96-well plates using MTT for cell viability observation. Plates containing 100 μL of complete RPMI medium and approximately 5 × 10^5 J774A.1 macrophages or VERO CCL 81 cells were incubated for 4 h at 37 °C and 5% CO2 for cell adhesion to occur. […] As a positive control, the reference drugs meglumine antimoniate (200–40,000 µM) and amphotericin B (0.031–2 µM) were used, and as a negative control, complete RPMI 1640 medium at 0.5% DMSO was used (considering 100% cell viability). After 72 h of incubation at 37 °C and 5% CO2, 10 μL of MTT was added and incubated for another 4 h at room temperature. The medium was then removed, and 100 μL of DMSO was added to dilute the formazan crystals created by the MTT [23]. Finally, the plate was taken to be read at 540 nm in a (Biotek model Elx800) spectrophotometer.

[3] = tested on: L. (L.) amazonensis axenic amastigotes; assay: Growth inhibition of axenic amastigotes, MTT assay, 72 h; format: cell-based, Leishmania (Leishmania) amazonensis; details: for EC50: read-out: Axenic Amastigotes EC50
Experimental: (§1) The species Leishmania (Leishmania) amazonensis (IFLA/BR/67/PH8) was maintained in promastigote form at a temperature of 26 °C in a biochemical oxygen demand incubator (BOD) (Eletrolab EL202, São Paulo, Brazil) and in complete Schneider medium (20% heat-inactivated fetal bovine serum (FBS), and 1% antibiotic solution). The L. (L.) amazonensis axenic amastigote forms were obtained through the differentiation of infective promastigote forms using Schneider medium supplemented with 5% FBS, pH 4.6, at a temperature of 32 °C. Parasite growth was observed daily and, if necessary, weekly repeats were performed.
(§2) Promastigote forms or axenic amastigotes in an exponential growth phase were cultured in 96-well plates with complete Schneider’s medium, at 1 × 10^6 parasites/mL. […] The plates were incubated for 72 h under a BOD at 26 °C to prepare promastigotes and 32 °C to prepare amastigotes. When ready, 10 μL of MTT (5 mg/mL) was added to all wells (with the exception of the blank) with an incubation for 4 h. Subsequently, 50 μL of SDS solution (dodecyl sodium sulfate) at 10% was added to dissolve the formazan crystals, and a spectrophotometric reading was then performed (Biotek model ELx800, Winooski, VT, USA) at 540 nm. Schneider medium with 0.5% DMSO was used, considering a 0% growth inhibition for the negative control.

[4] = tested on: L. (L.) amazonensis promastigotes; assay: Growth inhibition of promastigotes, MTT assay, 72 h; format: cell-based; details: Leishmania amazonensis; for IC50: read-out: Promastigotes IC50
Experimental: as §1, §2

in vitro [5] = details: African green monkey
Experimental: as §3, §4

[6] = tested on: promastigotes of L. (L.) amazonensis; details: cited from earlier work
[7] = tested on: amastigotes of L. (L.) amazonensis; details: cited from earlier work
[8] = tested on: L. (L.) amazonensis-infected J774A.1 macrophages; assay: Cytokine production in infected macrophages, ELISA; format: cell-based, murine; details: 72 h
Experimental: According to Rodrigues et al., 2021 [27], to carry out cytokine evaluation, the supernatant saved after the J774A.1 macrophage infection assay was used to evaluate cytokine production. Analysis kits (optEIATM ELISA, Pharmingen, San Diego, CA, USA) were used following the manufacturer’s protocol to examine the release of cytokines (TNF-α, IL-1α, IL-6, IL-10, and IL-12), and standard recombinant cytokines were used to produce a curve. The reading was performed in a spectrophotometer at 450 nm.

[9] = tested on: J774A.1 macrophages infected with L. (L.) amazonensis; assay: Nitric oxide production by infected macrophages, Griess reagent; format: cell-based, murine; details: 3.12 μM, 6.25 μM and 12.5 μM, 72 h, compared to negative control
Experimental: The measurement of NO production (using macrophage infection supernatant) was performed by the production of nitrite with Griess reagent. About 100 µL of infection supernatant was added to a 96-well plate. In parallel, serial concentrations of NaNO2 in RPMI medium were also added to the plate for interpolation of the standard curve. Griess reagent (1% Sulfanilamide in 10% (v/v) H3PO4 in Milli-Q® water and in equal parts to 0.1% naphthylenediamine in Milli-Q® water Q®) was then added and incubated for 10 min at room temperature. At the end of the incubation, a reading was conducted on a plate reader at 540 nm. The positive control was performed with Escherichia coli lipopolysaccharide at 2 μg/mL.

[10] = tested on: J774A.1 macrophages infected with L. (L.) amazonensis; assay: ROS production in infected macrophages, H2DCFDA test; format: cell-based, murine; details: 3.12 μM, 6.25 μM and 12.5 μM, 72 h, compared to negative control
Experimental: Macrophages were incubated in 96-well plates with complete RPMI medium for 3 h at 37 °C, and 5% CO2 for adherence. These were then infected with L. […] Then 10 μL of H2DCFDA was added for a final concentration of 20 μM and incubated for 30 min in the dark at 37 °C. A spectrofluorometer (FLx800) was used to read the fluorescence intensity, using 485 nm of excitation and 528 nm of emission. Antimycin A (5 μM) was used as the positive control for ROS generation.

[11] = Cytotoxicity on VERO cells, MTT assay, 72 h; details: African green monkey, VERO CCL 81 cells
Experimental: as §3, §4

[12] = Cytotoxicity on macrophages, MTT assay, 72 h; details: mouse
Experimental: as §3, §4

J774A.1 macrophages [13] = assay: Lysosomal activity, neutral red retention; format: cell-based, murine; details: 12.5 μM, 6.25 μM and 3.12 μM, 72 h, relative to negative control
Experimental: After this, 10 μL of PBS and 2% red neutral (VN) were added, with incubation in an incubator for another 30 min. Soon afterwards, the supernatant was aspirated and the plates washed 3× with PBS to remove excess VN. […] Finally, the plates were placed under agitation in a Kline apparatus for 30 min, and then read in a spectrophotometer at 540 nm.

J774A.1 macrophages [14] = assay: Phagocytic capacity, neutral-red-stained zymosan; format: cell-based, murine; details: 12.5 μM, 6.25 μM and 3.12 μM, 72 h, compared to negative control
Experimental: At 72 h, 10 μL of VN-stained zymosan was added and then incubated for 30 min. […] To remove what was not phagocytized by the macrophages, the plate was washed with PBS. The plate extraction solution was added, and then solubilization was performed in a Kline shaker. The board was taken for reading on a spectrophotometer at 540 nm.

[15] = Leishmania amazonensis, read-out: growth inhibition of axenic amastigote forms
[16] = read-out: growth inhibition of promastigote forms

For `C[C@@H]1[C@H](O)[C@@H](C)/C=C/C=C/C=C/C=C/C=C/C=C/C=C/[C@H](O[C@@H]2O[C@H](C)[C@@H](O)[C@H](N)[C@@H]2O)C[C@@H]2O[C@](O)(C[C@@H](O)C[C@@H](O)[C@H](O)CC[C@@H](O)C[C@@H](O)CC(=O)O[C@H]1C)C[C@H](O)[C@H]2C(=O)O` [Amphotericin B, reference compound], the EC50 ([1]; Leishmania amazonensis, J774.A1, infected J774A.1 macrophages, 72 h) was 0.29 ± 0.04 µM, the CC50 at 72 h (in vitro [2]) was 0.38 ± 0.06 µM and the EC50 ([3]; Leishmania amazonensis, 32 °C, MTT) was 0.23 ± 0.01 µM. For the same compound, the IC50 ([4]; 26 °C, MTT) was 0.36 ± 0.03 µM and the CC50 at 72 h (in vitro [5]) was 0.32 ± 0.08 µM.
For `C=C(C)[C@@H]1CC[C@]2(C)CC[C@]3(C)[C@H](CC[C@@H]4[C@@]5(C)CC[C@H](O)C(C)(C)[C@@H]5CC[C@]43C)[C@@H]12` [Lupeol], the IC50 for promastigotes ([6]; L. (L.) amazonensis promastigotes ref 38) is listed as 39.06 µg/mL and the “IC50 for amastigote forms” value ([7]; L. (L.) amazonensis amastigote forms ref 38) is listed as 44.1 µg/mL.
With `CC1(C)C=C2[C@H]3CC[C@@H]4[C@@]5(C)CC[C@H](O)C(C)(C)[C@@H]5CC[C@@]4(C)[C@]3(C)CC[C@@]2(C(=O)O)CC1` [Morolic acid, morolic acid] the “reduction in macrophage infection rate” value ([1]; 1.56 μM, 72 h) was 34%, the “reduction in the number of internalized amastigotes per infected macrophage” value (“reduction … per infected macrophage” below) ([1]; 1.56 μM, 72 h) was 59.1% and the “reduction in macrophage infection rate” value ([1]; 3.12 μM, 72 h) was 77.5%. The “reduction … per infected macrophage” value ([1]; 3.12 μM, 72 h) was 71.6%, the “reduction in macrophage infection rate” value ([1]; 6.25 μM, 72 h) was 93% and the “reduction … per infected macrophage” value ([1]; 6.25 μM, 72 h) was 86.8%. For the same compound, the “reduction in macrophage infection rate” value ([1]; 12.5 μM, 72 h) was 100%, the “reduction … per infected macrophage” value ([1]; 12.5 μM, 72 h) was 100% and the EC50 ([1]; Leishmania amazonensis, J774.A1, 72 h) was 2.56 ± 0.08 µM. The IL-1α levels [8] was “no effect”, the IL-12 levels [8] was “no effect” and the “production of TNF-α” value ([8]; at the higher concentration) was “significant increase”. The IL-6 levels ([8]; at the highest concentrations) was “significant reduction”, the IL-10 levels ([8]; at the highest concentrations) was “significant reduction” and the EC50 ([3]; Leishmania amazonensis) was 2.74 ± 0.03 µM. It also gave an inhibition at 1.56 µM [3, 15] of 34.1%, an inhibition at 3.12 µM [3, 15] of 68.6% and an inhibition at 6.25 µM [3, 15] of 76.4%. It also gave an inhibition at 12.5 µM [3, 15] of 100%, an inhibition at 25 µM [3, 15] of 100% and an inhibition at 50 µM [3, 15] of 100%. For the same compound, the inhibition at 100 µM [3, 15] was 100%, the “levels of NO produced in infected macrophages” value [9] was “increase” and the “levels of ROS produced in infected macrophages” value [10] was “increase”. It also gave an IC50 [4] of 1.13 ± 0.04 µM, an inhibition at 1.56 µM [4, 16] of 57.6% and an inhibition at 3.12 µM [4, 16] of 57.9%. The inhibition at 6.25 µM [4, 16] was 83.3%, the inhibition at 12.5 µM [4, 16] was 100% and the inhibition at 25 µM [4, 16] was 100%. For the same compound, the inhibition at 50 µM [4, 16] was 100%, the inhibition at 100 µM [4, 16] was 100% and the CC50 at 72 h [11] was 82.9 ± 1.84 µM. The viability at 72 h, 1.56 µM [11] was 100%, the viability at 72 h, 3.12 µM [11] was 100% and the viability at 72 h, 6.25 µM [11] was 93.2%. The viability at 72 h, 12.5 µM [11] was 88.8%, the viability at 72 h, 25 µM [11] was 79.4% and the viability at 72 h, 50 µM [11] was 71.2%. For the same compound, the viability at 72 h, 100 µM [11] was 38.8%, the viability at 72 h, 200 µM [11] was 24.3% and the CC50 at 72 h [12] was 68.6 ± 2.46 µM. It also gave a viability at 72 h, 1.56 µM ([12]; J774A.1 macrophages) of 100%, a viability at 72 h, 3.12 µM ([12]; J774A.1 macrophages) of 100% and a viability at 72 h, 6.25 µM ([12]; J774A.1 macrophages) of 100%. For the same compound, the viability at 72 h, 12.5 µM ([12]; J774A.1 macrophages) was 100%, the viability at 72 h, 25 µM ([12]; J774A.1 macrophages) was 100% and the viability at 72 h, 50 µM ([12]; J774A.1 macrophages) was 65%. For the same compound, the viability at 72 h, 100 µM ([12]; J774A.1 macrophages) was 15%, the viability at 72 h, 200 µM ([12]; J774A.1 macrophages) was 0% and the lysosomal activity (J774A.1 macrophages [13]) was “increased”. The “phagocytic capacity for zymosan” value (J774A.1 macrophages [14]) was “significant increase”.
In the case of `C[C@H]1[C@H](C)CC[C@]2(C(=O)O)CC[C@]3(C)C(=CC[C@@H]4[C@@]5(C)CC[C@H](O)C(C)(C)[C@@H]5CC[C@]43C)[C@H]12` [ursolic acid], the IC50 for promastigotes ([6]; L. (L.) amazonensis promastigotes ref 37) is given as 14.1 µg/mL and the “IC50 for axenic amastigotes” value ([7]; L. (L.) amazonensis axenic amastigotes ref 37) is given as 2.24 µg/mL.
Work on “Meglumine antimoniate [reference compound]” yielded an EC50 ([1]; infected J774A.1 macrophages, 72 h) of 541 ± 13.5 µM and an EC50 ([3]; 32 °C, MTT) of 1020 ± 25.7 µM.
